Measured values from US20260209214A1, “LSD1 MODULATORS” (RECURSION PHARMACEUTICALS, INC., priority 2022, published 2026).
Counter-ions that a name gives are not always drawn.

Biological target: Recombinant human LSD1 (Homo sapiens, UniProt O60341)
Test: LSD1 inhibition assay (HTRF LSD1 Histone H3K4 mono-demethylation assay, me1->me0)
Assay type: biochemical
Conditions: 20 nM recombinant human LSD1, 95 nM H3K4(me1) biotinylated peptide, 15 min preincubation, 60 min at 25° C., read-out: LSD1 inhibition IC50 (nM range)
Experimental: LSD1 biochemical activity was measured using the HTRF® LSD1 Histone H3K4 mono-demethylation assay (me1->me0). Briefly, the enzymatic buffer was prepared by addition of 50 mM Tris-HCl (Sigma cat #T2663-IL), 50 mM NaCl (ThermoFisher cat #AM9759) and 0.01% Tween 20 (ThermoFisher cat #J20605.AP) in distilled water (final pH 8.5). This buffer was supplemented with 10 μM FAD (Fisher Scientific cat #11411838) and 1 mM DTT (Sigma cat #D0632). For the assay, H3K4(me1) biotinylated peptide substrate (Anaspec, cat #64355) was added to provide a final assay concentration of 95 nM. The streptavidin-XL665 (Cisbio cat #610SAXLA) and H3K4 me0-Eu(K) antibody-cryptate (Cisbio, cat #61 KAOKAD) detection reagents were mixed according to the manufacturer's instructions. Test compounds were diluted in DMSO in a series of 10 semi-log step doses; 10 nL of each compound dose were dispensed in 384 well plates. Recombinant human LSD1 was diluted into enzymatic buffer to provide a final assay concentration of 20 nM and added to the tested compounds for 15 minutes. The reaction was started by addition of the substrate and incubated at 25° C. for 60 minutes. The detection reagents were added, and the plate was incubated in the dark for 90 minutes. Fluorescence was measured on an Envision 2103 plate reader with optical setup for […] in the HTRF mode. The ratio of acceptor and donor emission signals was calculated for each well. Percent inhibition values were calculated from the HTRF ratios at different doses and fitted to a 4-parameter logistic curve to determine IC50 values. […]

IC50 [nM] | SMILES
> 1000 | C[C@@H]1CC[C@H](N)CN1Cc1cccc(-c2ccc(C#N)c(F)c2)c1Cl [Example 330, 3'-{[(2R,5S)-5-amino-2-methylpiperidin-1-yl]methyl}-2'-chloro-3-fluoro-[1,1'-biphenyl]-4-carbonitrile]
> 1000 | N#Cc1ccc(-c2cc(CC3CNCCO3)ccc2C2CCCC2)cc1 (stereo not shown) [Example 162, 2′-cyclopentyl-5′-[(morpholin-2-yl)methyl]-[1,1′-biphenyl]-4-carbonitrile]
100 to 1000 | C[C@]1(N)CCN(Cc2c(F)ccc(-c3ccc(C#N)c(F)c3)c2Cl)C1 [Example 342, 3'-{[(3S)-3-amino-3-methylpyrrolidin-1-yl]methyl}-2'-chloro-3,4'-difluoro-[1,1'-biphenyl]-4-carbonitrile]
> 1000 | N#Cc1ccc(-c2cc(CC3CN4CCC4CO3)ccc2N2CCC2)cc1F (stereo not shown) [Example 160, 2′-(azetidin-1-yl)-3-fluoro-5′-({4-oxa-1-azabicyclo[4.2.0]octan-3-yl}methyl)-[1,1′-biphenyl]-4-carbonitrile]
100 to 1000 | CC(C)N1CCOC(Cc2ccc(N3CCC3)c(-c3ccc(C#N)c(F)c3)c2)C1 (stereo not shown) [Example 163, 2′-(azetidin-1-yl)-3-fluoro-5′-{[4-(propan-2-yl)morpholin-2-yl]methyl}-[1,1′-biphenyl]-4-carbonitrile]
< 10 | N#Cc1ccc(-c2cccc(CC3CCNC3)c2-c2ccns2)cc1F (stereo not shown) [Example 109, 2-fluoro-4-[2-isothiazol-5-yl-3-(pyrrolidin-3-ylmethyl)phenyl]benzonitrile; hydrochloride]
100 to 1000 | N#Cc1ccc(-c2cc(CC3CNCCO3)ccc2N2CCN(CC(F)F)CC2)cc1F (stereo not shown) [Example 105, 2′-[4-(2,2-difluoroethyl)piperazin-1-yl]-3-fluoro-5′-[(morpholin-2-yl)methyl]-[1,1′-biphenyl]-4-carbonitrile]
10 to 25 | N#Cc1ccc(-c2cccc(CN3CCC4(CCNC4)C3)c2-c2cnco2)cc1 (stereo not shown) [Example 325, 3'-({2,7-diazaspiro[4.4]nonan-2-yl}methyl)-2'-(1,3-oxazol-5-yl)-[1,1'-biphenyl]-4-carbonitrile]
100 to 1000 | N#Cc1ccc(-c2cccc(Cn3ncc4c3CNCC4)c2-c2cncs2)cc1F [Example 280, 3-fluoro-3'-({1H,4H,5H,6H,7H-pyrazolo[3,4-c]pyridin-1-yl}methyl)-2'-(1,3-thiazol-5-yl)-[1,1'-biphenyl]-4-carbonitrile]
25 to 100 | N#Cc1ccc(-c2cccc(CN3C[C@H]4C[C@@H]3CCN4)c2C2CC2)cc1F [Example 322, 2'-cyclopropyl-3'-{[(1R,5S)-2,6-diazabicyclo[3.2.1]octan-6-yl]methyl}-3-fluoro-[1,1'-biphenyl]-4-carbonitrile]
> 1000 | N#Cc1ccc(-c2cc(CC3CNCCO3)ccc2NCc2cnn3c2CCCC3)cc1F (stereo not shown) [Example 117, 3-fluoro-5′-[(morpholin-2-yl)methyl]-2′-[{{4H,5H,6H,7H-pyrazolo[1,5-a]pyridin-3-yl}methyl)amino]-[1,1′-biphenyl]-4-carbonitrile]
> 1000 | N#Cc1ccc(-c2cc(CC3CNCCO3)ccc2N2CCC2)cc1Cl (stereo not shown) [Example 134, 4-[2-(azetidin-1-yl)-5-(morpholin-2-ylmethyl)phenyl]-2-chloro-benzonitrile]
100 to 1000 | N#Cc1ccc(-c2cc(CC3CNCCO3)ccc2COc2cccnc2)cc1F (stereo not shown) [Example 106, 3-fluoro-5′-[(morpholin-2-yl)methyl]-2′-[(pyridin-3-yloxy)methyl]-[1,1′-biphenyl]-4-carbonitrile]
100 to 1000 | CCN1CCN(c2ccc(CC3CNCCO3)cc2-c2ccc(C#N)c(F)c2)CC1 (stereo not shown) [Example 164, 2′-(4-ethylpiperazin-1-yl)-3-fluoro-5′-[(morpholin-2-yl)methyl]-[1,1′-biphenyl]-4-carbonitrile]
< 10 | N#Cc1ccc(-c2cccc(C[C@H]3CNCCO3)c2-c2ocnc2F)cc1F [Example 15, 3-fluoro-2′-(4-fluoro-1,3-oxazol-5-yl)-3′-{[(2S)-morpholin-2-yl]methyl}-[1,1′-biphenyl]-4-carbonitrile]
> 1000 | N#Cc1ccc(-c2cccc(CN3C[C@H](N)C[C@H](C(F)(F)F)C3)c2Cl)cc1F [Example 326, 3'-{[(3R,5S)-3-amino-5-(trifluoromethyl)piperidin-1-yl]methyl}-2'-chloro-3-fluoro-[1,1'-biphenyl]-4-carbonitrile]
> 1000 | CN1CCOC(Cc2ccc(N3CCC3)c(-c3ccc(C#N)c(F)c3)c2)C1 (stereo not shown) [Example 146, 2′-(azetidin-1-yl)-3-fluoro-5′-[(4-methylmorpholin-2-yl)methyl]-[1,1′-biphenyl]-4-carbonitrile]
100 to 1000 | CC1(O)CC2(CN(c3ccc(CC4CNCCO4)cc3-c3ccc(C#N)c(F)c3)C2)C1 (stereo not shown) [Example 165, 3-fluoro-2′-{6-hydroxy-6-methyl-2-azaspiro[3.3]heptan-2-yl}-5′-[(morpholin-2-yl)methyl]-[1,1′-biphenyl]-4-carbonitrile]
< 10 | N#Cc1ccc(-c2cccc(CN3C[C@]4(N)CC[C@H]3C4)c2OC(F)F)cc1F [Example 177, 3'-{[(1S,4S)-4-amino-2-azabicyclo[2.2.1]heptan-2-yl]methyl}-2'-(difluoromethoxy)-3-fluoro-[1,1'-biphenyl]-4-carbonitrile]
10 to 25 | COCC1CCN(c2ccc(CC3CNCCCO3)cc2-c2ccc(C#N)c(F)c2)CC1 (stereo not shown) [Example 74, 3-fluoro-2′-[4-(methoxymethyl)piperidin-1-yl]-5′-[(1,4-oxazepan-2-yl)methyl]-[1,1′-biphenyl]-4-carbonitrile]
> 1000 | CC(C)N(C)c1ccc(CN2CCN(C)CC2)cc1-c1ccc(C#N)c(F)c1 [Example 295, 3-fluoro-2'-[methyl(propan-2-yl)amino]-5'-[(4-methylpiperazin-1-yl)methyl]-[1,1'-biphenyl]-4-carbonitrile]
10 to 25 | N#Cc1ccc(-c2cccc(C[C@H]3CNCCO3)c2C2=CCOC2)cc1F (single isomer, unassigned) [Example 22]
10 to 25 | N#Cc1ccc(-c2cc(CN3C[C@]4(N)CC[C@H]3C4)ccc2N2CCC3(CCCO3)CC2)cc1F [Example 217, 5'-{[(1S,4S)-4-amino-2-azabicyclo[2.2.1]heptan-2-yl]methyl}-3-fluoro-2'-{1-oxa-8-azaspiro[4.5]decan-8-yl}-[1,1'-biphenyl]-4-carbonitrile]
< 10 | N#Cc1ccc(-c2cccc(N3CCC4NCCC4C3)c2-c2ccns2)cc1F (stereo not shown) [Example 108, 3-fluoro-3'-{octahydro-1H-pyrrolo[3,2-c]pyridin-5-yl}-2'-(1,2-thiazol-5-yl)-[1,1'-biphenyl]-4-carbonitrile]
> 1000 | CN1CCC12CCN(Cc1c(F)ccc(-c3ccc(C#N)c(F)c3)c1F)C2 (stereo not shown) [Example 290, 2', 3,4'-trifluoro-3'-({1-methyl-1,6-diazaspiro[3.4]octan-6-yl}methyl)-[1,1'-biphenyl]-4-carbonitrile]
10 to 25 | N#Cc1ccc(-c2cccc(CC3CNCCO3)c2C2=CCOC2)cc1F (stereo not shown) [Example 10, 2′-(2,5-dihydrofuran-3-yl)-3-fluoro-3′-[(morpholin-2-yl)methyl]-[1,1′-biphenyl]-4-carbonitrile]

SMILES | IC50 [nM]
Cc1cccc(-c2ccc(CN3[C@@H]4CC[C@H]3[C@@H](N)C4)cc2-c2ccc(C#N)c(F)c2)n1 (racemic) [Example 256, 5'-{[(1S,2S,4R)-2-amino-7-azabicyclo[2.2.1]heptan-7-yl]methyl}-3-fluoro-2'-(6-methylpyridin-2-yl)-[1,1'-biphenyl]-4-carbonitrile] | 25 to 100
CC(C)Oc1ccc(CN2[C@@H]3CC[C@H]2[C@@H](N)C3)cc1-c1ccc(C#N)c(F)c1 (racemic) [Example 250, 5'-{[(1S,2S,4R)-2-amino-7-azabicyclo[2.2.1]heptan-7-yl]methyl}-3-fluoro-2'-(propan-2-yloxy)-[1,1'-biphenyl]-4-carbonitrile] | 10 to 25
CN[C@H]1C[C@H]2CC[C@@H]1N2Cc1cccc(-c2ccc(C#N)cc2)c1-c1ccns1 (single isomer, unassigned) [Example 182] | < 10
N#Cc1ccc(-c2cc(CN3[C@@H]4CC[C@H]3[C@@H](N)C4)ccc2N2CCC(CF)CC2)cc1F (racemic) [Example 235, 5'-{[(1S,2S,4R)-2-amino-7-azabicyclo[2.2.1]heptan-7-yl]methyl}-3-fluoro-2'-[4-(fluoromethyl)piperidin-1-yl]-[1,1'-biphenyl]-4-carbonitrile] | 10 to 25
N#Cc1ccc(-c2cc(CN3[C@@H]4CC[C@H]3[C@@H](N)C4)ccc2CC2COC2)cc1F (racemic) [Example 246, 5'-{[(1S,2S,4R)-2-amino-7-azabicyclo[2.2.1]heptan-7-yl]methyl}-3-fluoro-2'-[(oxetan-3-yl)methyl]-[1,1'-biphenyl]-4-carbonitrile] | 100 to 1000
